Reference: patent US4122184A, “Benzimidazole insecticides” (priority 1977, dated 1978)

Experiments:
Tussock Moth = assay: Field trial (first summer), stomach; type: in vivo; settings: 750 ppm
Zebra Caterpillar = assay: Field trial (first summer), stomach; type: in vivo; settings: 500 ppm
Mexican Bean Beetle = assay: Field trial (first summer), topical; type: in vivo, Epilachna varivestis; settings: .25 μg/μl
How it was run: (§1)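 Field trial from the first summer in which 1 µl of test solution holding a set number of micrograms of benzimidazole was applied topically to larvae or adult insects. Mortality at a given route and concentration was scored on a 0–9 scale.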

[1] = test system: Tarnished Plant Bug Adults; assay: Field trial, stomach poison test; type: in vivo; parameters: key: mortality rating on a 0 to 9 scale
How it was run: (§2)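 Spray (10 psi) or dip leaves from infested plants in test solution; air-dry; put in Petri dish; add 5 or 10 insects; score mortality 0–9 at 24/48/72 h. 1–2 reps, usually 2–3 rates.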

[2] = test system: Unidentified Green Leafhopper; assay: Field trial, stomach poison test; type: in vivo; parameters: key: mortality rating on a 0 to 9 scale
How it was run: as §2

Eastern Tent Caterpillar [3] = assay: Field trial, stomach poison test; type: in vivo
How it was run: as §2

Bagworms = assay: Field trial, stomach poison test; type: in vivo
How it was run: as §2

Armyworm, P. Unipuncta = assay: Field trial, stomach poison test; type: in vivo
How it was run: as §2

[4] = test system: Red-Legged Grasshopper Adults; assay: Field trial, stomach poison test; type: in vivo
How it was run: as §2

Walnut Caterpillar = assay: Field trial, stomach poison test; type: in vivo
How it was run: as §2

Elm Leaf Beetle = assay: Field trial, stomach poison test; type: in vivo
How it was run: as §2

Eastern Tent Caterpillar [5] = assay: Field trial, topical application; type: in vivo
How it was run: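 1 μL benzimidazole solution of set microgram content applied topically to larvae or adults. Mortality read at 24, 48 and 72 h where applicable, rated 0-9 (0 = 0-10%, 9 = 91-100%); values are average mortality per concentration.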

Picnic Beetle = assay: Field trial (first summer), topical; type: in vivo; settings: .078125 μg/μl
How it was run: as §1

Confused Flour Beetle = assay: Field trial (first summer), topical; type: in vivo; settings: .078125 μg/μl
How it was run: as §1

Alfalfa Weevil Larvae = assay: Field trial, contact poison test; type: in vivo
How it was run: (§3)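 Infested host plants were kept in water-filled bottles with cellucotton around the stem and sprayed with different compound concentrations by atomizer at 10 psi from arm's length. Mortality was read at 24, 48 and 72 h on a 0–9 scale (0 = 0-10%, 9 = 91-100% mortality), averaged per concentration.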

[6] = test system: Potato Flea Beetle Adults; assay: Field trial, contact poison test; type: in vivo
How it was run: as §3

Differential Grasshopper = assay: Field trial (first summer), contact; type: in vivo; settings: 125 ppm
Meadow Grasshopper = assay: Field trial (first summer), contact; type: in vivo; settings: 125 ppm

O=[N+]([O-])c1cc(C(F)(F)F)cc2nc(C(F)(F)F)[nH]c12 [A, 2,6-bis(trifluoromethyl)-4-nitrobenzimidazole]
insect mortality rating (Tussock Moth): 9 (91-100 percent mortality) | insect mortality rating (Zebra Caterpillar): 7 | insect mortality rating (Mexican Bean Beetle): 9 (91-100 percent mortality) | average mortality rating ([1]; 10 ppm): 3 | average mortality rating ([1]; 25 ppm): 1 | average mortality rating ([1]; 50 ppm): 2 | average mortality rating ([2]; 10 ppm): 4 | average mortality rating ([2]; 25 ppm): 2 | average mortality rating ([2]; 50 ppm): 6 | average mortality rating (Eastern Tent Caterpillar [3]; 250 ppm): 0 (0-10 percent) | average mortality rating (Eastern Tent Caterpillar [3]; 500 ppm): 0 (0-10 percent) | average mortality rating (Eastern Tent Caterpillar [3]; 1000 ppm): 0 (0-10 percent) | average mortality rating (Bagworms; 500 ppm): 1 | average mortality rating (Bagworms; 750 ppm): 0 (0-10 percent) | average mortality rating (Bagworms; 1000 ppm): 0 (0-10 percent) | average mortality rating (Bagworms; 1500 ppm): 1 | average mortality rating (Bagworms; 2500 ppm): 0 (0-10 percent) | average mortality rating (Bagworms; 5000 ppm): 1 | average mortality rating (Armyworm, P. Unipuncta; 125 ppm): 9 (91-100 percent mortality) | average mortality rating (Armyworm, P. Unipuncta; 250 ppm): 9 (91-100 percent mortality) | average mortality rating (Armyworm, P. Unipuncta; 500 ppm): 9 (91-100 percent mortality) | average mortality rating ([4]; 10 ppm): 0 (0-10 percent) | average mortality rating ([4]; 25 ppm): 4 | average mortality rating ([4]; 50 ppm): 6 | average mortality rating (Walnut Caterpillar; 50 ppm): 1 | average mortality rating (Walnut Caterpillar; 100 ppm): 3 | average mortality rating (Walnut Caterpillar; 250 ppm): 3 | average mortality rating (Elm Leaf Beetle; 125 ppm): 3 | average mortality rating (Elm Leaf Beetle; 250 ppm): 0 (0-10 percent) | average mortality rating (Elm Leaf Beetle; 500 ppm): 5 | average mortality rating (Eastern Tent Caterpillar [5]; 0.3 μg/μl): 3 | average mortality rating (Eastern Tent Caterpillar [5]; 0.6 μg/μl): 1 | average mortality rating (Eastern Tent Caterpillar [5]; 1.2 μg/μl): 3 | insect mortality rating (Picnic Beetle): 9 (91-100 percent mortality) | insect mortality rating (Confused Flour Beetle): 9 (91-100 percent mortality) | average mortality rating (Alfalfa Weevil Larvae; 500 ppm): 3 | average mortality rating (Alfalfa Weevil Larvae; 750 ppm): 3 | average mortality rating (Alfalfa Weevil Larvae; 1000 ppm): 5 | average mortality rating ([6]; 10 ppm): 9 (91-100 percent mortality) | average mortality rating ([6]; 25 ppm): 9 (91-100 percent mortality) | average mortality rating ([6]; 50 ppm): 8 | average mortality rating ([6]; 100 ppm): 8 | average mortality rating ([6]; 250 ppm): 9 (91-100 percent mortality) | insect mortality rating (Differential Grasshopper): 9 (91-100 percent mortality) | insect mortality rating (Meadow Grasshopper): 9 (91-100 percent mortality)
